# Reference: PMC8878047 (Pharmaceutics, 2022)
# Like-named read-outs stand apart in the source and are kept apart here.
# Columns and labels:
# [1] = test system: wild type AB strain zebrafish; details: for statistical survival of the tested zebrafish / statistical death of the tested zebrafish: 30 embryos per well
# Description: Zebrafish were incubated and grown in the Joint Laboratory established by Shandong Rui’ying Pharmaceutical Group (Heze, China) and China Pharmaceutical University. Both the Wild-type AB (Danio rerio) and Tg(mpx:eGFP) zebrafish strains were maintained under the guidance of the standard procedures of The Zebrafish Book. […] Then the zebrafish were allowed to naturally mate and spawn the next morning. The normally born embryos were then collected after 1 h and kept in an incubating system at 28 °C. The 6 hpf (hour post fertilization) embryos were transferred into a 6-well plate exposed to 5 mL of egg water, in which 30 embryos were in each well.
# [2] = test system: neutrophil cluster aggregation; experiment: CuSO4-induced inflammation model in Tg(mpx:eGFP) zebrafish; details: 10 μM CuSO4 40 min, Tg(mpx:eGFP) 3 dpf
# [3] = test system: H2O2-induced ROS production; experiment: H2O2-induced oxidative stress model in zebrafish (DCFH-DA); details: 48 h pre-treatment, H2O2 1.0 mM 4 h, H2O2-induced 17,250, control 590
# [4] = Pharmacokinetic study in plasma after oral administration (HPLC-MS); details: SD rats, EFX 10 mg/kg, EFX-Ca 12 mg/kg
# E. coli [5] = experiment: Quasi-clinical trial on E. coli-infected AA broilers (drug-mixed feeding); details: for Average Final Weight / Average Weight Gain / Average Increment of Weight / Cure Rate (%) / Survival Number: AA broilers; for Average Weight Gain: Table 7; for Average Increment of Weight: Table 8; for Cure Rate (%) / Survival Number: 6 d; for Survival Number: 50 per group
# Description: (§1) Then, broilers were randomly and equally divided into five different groups and marked as five groups. […] Note that the daily drug-mixed feeding ratio (g drug/kg feed) was indicated for the first 4 h every day, and unmedicated feed then followed. In addition, E. coli strains for the infection of chicken was supplied as a freeze-dried powder. They were revived and cultured according to the standard procedures. The strain was inoculated into a liquid medium and cultured in a 37 °C incubator for 6–8 h. We detected the concentration of the bacterial liquid to be 2.8 × 10^8 CFU/mL as the pathogenic concentration. Finally, all of the chickens except the healthy control group were intramuscularly injected with 0.5 mL of pathogenic bacteria, and all chickens were fasted for 4 h. After successfully simulating the bacterial infection of the chickens, the drug-mixed feeding chickens were continuously fed for 6 d. During this time, we observed their behavioral habits, mortality, and recovery rates.
# E. coli [6] = experiment: Quasi-clinical trial on E. coli-infected 817 broilers (drug-mixed feeding); details: for Average Final Weight / Average Weight Gain / Average Increment of Weight / Cure Rate (%) / Survival Number: 817 broilers; for Average Weight Gain: Table 7; for Average Increment of Weight: Table 8; for Cure Rate (%) / Survival Number: 6 d; for Survival Number: 50 per group
# Description: as §1
# [7] = EFX-Ca High 14 g drug (5% solution) + 1.5 kg feed/4 h
# [8] = EFX-Ca Low 6 g drug (5% solution) + 1.5 kg feed/4 h
# [9] = EFX-Ca Medium 9 g + 1.5 kg feed
# [10] = EFX-Ca Medium 9 g drug (5% solution) + 1.5 kg feed/4 h
# [11] = EFX-Ca High 14 g + 0.75 kg feed
# [12] = EFX-Ca High 14 g drug (5% solution) + 0.75 kg feed/4 h
# [13] = EFX-Ca Low 6 g drug (5% solution) + 0.75 kg feed/4 h
# [14] = EFX-Ca Medium 9 g + 0.75 kg feed
# [15] = EFX-Ca Medium 9 g drug (5% solution) + 0.75 kg feed/4 h
compound,measurement,setting,value
"CCN1CCN(c2cc3c(cc2F)c(=O)c(C(=O)[O-])cn3C2CC2)CC1.CCN1CCN(c2cc3c(cc2F)c(=O)c(C(=O)[O-])cn3C2CC2)CC1.O.O.O.O.[Ca+2] [EFX-Ca, [Ca(EFX)2(H2O)4]·H2O]",statistical survival of the tested zebrafish,"[1]; 10 μM medicated bath, 96 hpf",26
same,statistical death of the tested zebrafish,"[1]; 10 μM medicated bath, 120 hpf",4
same,statistical survival of the tested zebrafish,"[1]; 10 μM medicated bath, 120 hpf",26
same,statistical death of the tested zebrafish,"[1]; 20 μM medicated bath, 24 hpf",0
same,statistical survival of the tested zebrafish,"[1]; 20 μM medicated bath, 24 hpf",30
same,statistical death of the tested zebrafish,"[1]; 20 μM medicated bath, 48 hpf",0
same,statistical survival of the tested zebrafish,"[1]; 20 μM medicated bath, 48 hpf",30
same,statistical death of the tested zebrafish,"[1]; 20 μM medicated bath, 72 hpf",0
same,statistical survival of the tested zebrafish,"[1]; 20 μM medicated bath, 72 hpf",30
same,statistical death of the tested zebrafish,"[1]; 20 μM medicated bath, 96 hpf",0
same,statistical survival of the tested zebrafish,"[1]; 20 μM medicated bath, 96 hpf",30
same,statistical death of the tested zebrafish,"[1]; 20 μM medicated bath, 120 hpf",0
same,statistical survival of the tested zebrafish,"[1]; 20 μM medicated bath, 120 hpf",30
same,physiological abnormalities of zebrafish,"[1]; full-range concentration 0.01 to 20 μM, 24 to 120 hpf",no obvious physiological abnormalities
same,CuSO4-induced neutrophil aggregation,[2]; 0.1 μM pre-incubation 1 h,significantly dispersed
same,CuSO4-induced neutrophil aggregation,[2]; 1 μM pre-incubation 1 h,the neutrophil aggregation was more effectively inhibited
same,Average IOD (integrated optical density) of green fluorescence,[3]; 0.01 μM,1060 a.u.
same,Average IOD (integrated optical density) of green fluorescence,[3]; 0.1 μM,721 a.u.
same,Average IOD (integrated optical density) of green fluorescence,[3]; 1 μM,863 a.u.
same,Ke,[4]; plasma,0.16
same,Tmax,[4]; plasma,0.75 H
same,Vd,[4]; plasma,0.26744 L/kg
same,t 1/2β,[4]; plasma,4.41 H
same,concentration at 0 h,"[4]; male, SD, rat, in vivo, Drug concentration in plasma, 0 h",80 ng/mL
same,concentration at 0.083 h,"[4]; male, SD, rat, in vivo, Drug concentration in plasma, 0.083 h",860 ng/mL
same,concentration at 0.333 h,"[4]; male, SD, rat, in vivo, Drug concentration in plasma, 0.333 h",840 ng/mL
same,concentration at 0.5 h,"[4]; male, SD, rat, in vivo, Drug concentration in plasma, 0.5 h",1690 ng/mL
same,concentration at 0.75 h,"[4]; male, SD, rat, in vivo, Drug concentration in plasma, 0.75 h",1920 ng/mL
same,concentration at 1 h,"[4]; male, SD, rat, in vivo, Drug concentration in plasma, 1 h",1390 ng/mL
same,concentration at 3 h,"[4]; male, SD, rat, in vivo, Drug concentration in plasma, 3 h",770 ng/mL
same,concentration at 4 h,"[4]; male, SD, rat, in vivo, Drug concentration in plasma, 4 h",700 ng/mL
same,concentration at 6 h,"[4]; male, SD, rat, in vivo, Drug concentration in plasma, 6 h",580 ng/mL
same,concentration at 8 h,"[4]; male, SD, rat, in vivo, Drug concentration in plasma, 8 h",480 ng/mL
same,concentration at 10 h,"[4]; male, SD, rat, in vivo, Drug concentration in plasma, 10 h",100 ng/mL
same,concentration at 12 h,"[4]; male, SD, rat, in vivo, Drug concentration in plasma, 12 h",140 ng/mL
same,concentration at 24 h,"[4]; male, SD, rat, in vivo, Drug concentration in plasma, 24 h",90 ng/mL
same,Average Final Weight,E. coli [5]; EFX-Ca High 14 g + 1.5 kg feed,1750 ± 125 g
same,Average Weight Gain,E. coli [5]; EFX-Ca High 14 g + 1.5 kg feed,250
same,Average Increment of Weight,E. coli [5]; EFX-Ca High 14 g + 1.5 kg feed,230 g
same,Cure Rate (%),E. coli [5]; [7],60%
same,Survival Number,E. coli [5]; [7],30
same,Average Final Weight,E. coli [5]; EFX-Ca Low 6 g + 1.5 kg feed,1690 ± 95 g
same,Average Weight Gain,E. coli [5]; EFX-Ca Low 6 g + 1.5 kg feed,190
same,Average Increment of Weight,E. coli [5]; EFX-Ca Low 6 g + 1.5 kg feed,190 g
same,Cure Rate (%),E. coli [5]; [8],54%
same,Survival Number,E. coli [5]; [8],27
same,Average Final Weight,E. coli [5]; [9],1640 ± 73 g
same,Average Weight Gain,E. coli [5]; [9],140
same,Average Increment of Weight,E. coli [5]; [9],280 g
same,Cure Rate (%),E. coli [5]; [10],78%
same,Survival Number,E. coli [5]; [10],39
same,"highest cure rate, higher than the EFX dose group by","E. coli [5]; AA infected chickens, EFX-Ca medium dose vs EFX",25.8%
same,Average Final Weight,E. coli [6]; [11],1000 ± 51 g
same,Average Weight Gain,E. coli [6]; [11],70
same,Average Increment of Weight,E. coli [6]; [11],80 g
same,Cure Rate (%),E. coli [6]; [12],58%
same,Survival Number,E. coli [6]; [12],29
same,Average Final Weight,E. coli [6]; EFX-Ca Low 6 g + 0.75 kg feed,1210 ± 67 g
same,Average Weight Gain,E. coli [6]; EFX-Ca Low 6 g + 0.75 kg feed,280
same,Average Increment of Weight,E. coli [6]; EFX-Ca Low 6 g + 0.75 kg feed,260 g
same,Cure Rate (%),E. coli [6]; [13],88%
same,Survival Number,E. coli [6]; [13],44
same,Average Final Weight,E. coli [6]; [14],1010 ± 61 g
same,Average Weight Gain,E. coli [6]; [14],80
same,Average Increment of Weight,E. coli [6]; [14],140 g
same,Cure Rate (%),E. coli [6]; [15],80%
same,Survival Number,E. coli [6]; [15],40
same,"highest cure rate, higher than the EFX dose group by","E. coli [6]; 817 infected chickens, EFX-Ca low dose vs EFX",37.5%
